The source of these data is PMC5760734, “Development of an oral once-weekly drug delivery system for HIV antiretroviral therapy” (Nature Communications, 2018).

A short description of data set [1]: Drug stability in simulated gastric fluid (SGF), HPLC. The settings on record: SGF pH ~1.2, 37 °C, 24 h, salt forms. The protocol: To determine drug stability at low pH, the drugs were dissolved in methanol to form a concentrated stock solution. Methanol solutions were then diluted 20-fold in simulated gastric fluid, USP without pepsin (pH ~1.2; henceforth referred to as SGF). Drug solutions were then placed in a shaker incubator (New Brunswick™ Innova® 44, Eppendorf, USA) at 37 °C and 150 r.p.m. At various times, aliquots were withdrawn and stored at −20 °C until analysis. Drug concentrations in the solution were analysed using HPLC and reported as percent of the initial concentrations.
The output signal was monitored and processed using ChemStation® software (Agilent Technologies Inc., USA). Chromatographic separation was carried out on a 50 mm × 4.6 mm EC-C18 Agilent Poroshell 120 analytical column with 2.7 µm spherical particles.
The injection volume was 5 µL, and the UV detection wavelength of 260 nm was selected.
For RPV, the stationary phase was maintained at 40 °C. The mobile phase consisted of methanol: water (pH 3.5 adjusted with 0.1% formic acid) (43:57 v/v) at a flow rate of 0.9 mL/min over a 10 min run time. The injection volume was 20 µL, and the UV detector was set at 290 nm.
For CAB, the column was maintained at 45 °C and the optimized mobile phase consisted of acetonitrile: water (pH 3.5 adjusted with 0.1% formic acid) (30:70 v/v) at flow rate of 0.8 mL/min over an 8 min run time. For analysis, 5 µL of the sample was injected on to the column, and the samples were analysed at a wavelength of 260 nm.
For tenofovir alafenamide, the column was maintained at 22 °C. The mobile phase consisted initially of acetonitrile: water (pH 3.5 adjusted with 0.1% formic acid) (100:0 v/v). […] The flow rate was 0.6 mL/min and the run time was 8 min. The injection volume was 10 µL, and the UV detection wavelength of 260 nm was selected.

Data set [2] relates to HIV reference strain NL4-3. More on the design: method as in ref 46,55–57 (a number printed in a supplementary file, which may have a reference list of its own: not looked up in the article's list). Particulars: wild-type virus; cited from earlier work.

Molecules are shown by their SMILES.

Regarding `C[C@@H]1CCO[C@H]2Cn3cc(C(=O)NCc4ccc(F)cc4F)c(=O)c(O)c3C(=O)N12` [DTG, dolutegravir], the “stability in SGF” value in data set [1] is given as “stable”. Besides, in data set [2], the IC50 is 70 nM and the “m (slope parameter of Hill curve)” value is listed as 1.2.

The IC50 is the point on the concentration scale where inhibition reaches its midpoint.
